Values after ≈ are worked out from the molar mass of the structure shown. Active and inactive are the calls of the source. No cut-off for these calls is given here.
Legend:
Escherichia coli [1] = test: microbe, parasite or virus in culture
Escherichia coli [2] = test: microbe, parasite or virus in culture; remark: listed apart in the source
Escherichia coli [3] = test: microbe, parasite or virus in culture; remark: listed apart in the source
[4] = AUC in rat at 10 mg/kg, iv; format: ADME, organism-based; conditions: in vivo
Escherichia coli [5] = test: microbe, parasite or virus in culture; remark: listed apart in the source
Escherichia coli [6] = test: microbe, parasite or virus in culture; remark: listed apart in the source
Beta-lactamase SHV-12 = target: T1, Beta-lactamase SHV-12 (Escherichia coli, UniProt Q7X574); test: Stability assessed as assessed as Escherichia coli beta-lactamase SHV-12-mediated compound hydrolysis by measuring molar enthalpy of hydrolysis at 1 mM by isothermal titration calorimetry; format: ADME; conditions: 1000 µM
T1 sequence (Q7X574 whole entry): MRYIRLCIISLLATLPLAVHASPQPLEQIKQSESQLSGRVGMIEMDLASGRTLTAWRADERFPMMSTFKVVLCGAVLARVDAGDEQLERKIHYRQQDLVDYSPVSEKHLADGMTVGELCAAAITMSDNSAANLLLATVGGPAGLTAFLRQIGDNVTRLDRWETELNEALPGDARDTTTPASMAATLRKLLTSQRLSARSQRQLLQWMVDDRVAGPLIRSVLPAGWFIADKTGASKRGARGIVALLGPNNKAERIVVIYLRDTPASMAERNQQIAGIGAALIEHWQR

[7] = Drug excretion in rat assessed as unchanged parent drug level at 10 mg/kg, iv; format: ADME, organism-based; conditions: in vivo, read-out: Drug excretion
[8] = AUC in dog at 10 mg/kg, iv; format: ADME, organism-based, Canis lupus familiaris; conditions: in vivo
Escherichia coli [9] = test: microbe, parasite or virus in culture; remark: listed apart in the source
Escherichia coli [10] = test: microbe, parasite or virus in culture; remark: listed apart in the source
Escherichia coli [11] = test: microbe, parasite or virus in culture; remark: listed apart in the source
Escherichia coli [12] = test: microbe, parasite or virus in culture; remark: listed apart in the source
Escherichia coli [13] = test: microbe, parasite or virus in culture; remark: listed apart in the source
[14] = AUC in mouse at […], iv; format: ADME, organism-based; conditions: in vivo
Escherichia coli [15] = test: microbe, parasite or virus in culture; remark: listed apart in the source
[16] = Stability assessed as assessed as Escherichia coli beta-lactamase KPC-2-mediated compound hydrolysis by measuring molar enthalpy of hydrolysis at 1 mM by isothermal titration calorimetry; format: ADME; conditions: 1000 µM
[17] = Stability assessed as assessed as Escherichia coli beta-lactamase CTX-M-15-mediated compound hydrolysis by measuring molar enthalpy of hydrolysis at 1 mM by isothermal titration calorimetry; format: ADME; conditions: 1000 µM
Escherichia coli [18] = test: microbe, parasite or virus in culture; remark: listed apart in the source
[19] = Drug excretion in dog assessed as unchanged parent drug level at 10 mg/kg, iv; format: ADME, organism-based, Canis lupus familiaris; conditions: in vivo, read-out: Drug excretion
Escherichia coli [20] = test: microbe, parasite or virus in culture; remark: listed apart in the source
Klebsiella pneumoniae = test: Antimicrobial activity against Klebsiella pneumoniae expressing beta-lactamase NDM-1 infected in neutropenic mouse thigh infection model assessed as compound dose causing 1 log10 CFU reduction in bacterial load dosed subcutaneously every 4 hrs; format: functional
Escherichia coli [21] = test: microbe, parasite or virus in culture; remark: listed apart in the source
Escherichia coli [22] = test: microbe, parasite or virus in culture; remark: listed apart in the source
Escherichia coli [23] = test: microbe, parasite or virus in culture; remark: listed apart in the source
Escherichia coli [24] = test: microbe, parasite or virus in culture; remark: listed apart in the source
Escherichia coli [25] = test: microbe, parasite or virus in culture; remark: listed apart in the source
Escherichia coli [26] = test: microbe, parasite or virus in culture; remark: listed apart in the source
Escherichia coli [27] = test: Antimicrobial activity against Escherichia coli expressing beta-lactamase KPC-2 by CLSI broth microdilution method; format: functional
Escherichia coli [28] = test: microbe, parasite or virus in culture; remark: listed apart in the source
Escherichia coli [29] = test: microbe, parasite or virus in culture; remark: listed apart in the source
Escherichia coli [30] = test: microbe, parasite or virus in culture; remark: listed apart in the source
Escherichia coli [31] = test: microbe, parasite or virus in culture; remark: listed apart in the source
Escherichia coli [32] = test: microbe, parasite or virus in culture; remark: listed apart in the source
Escherichia coli [33] = test: Antimicrobial activity against Escherichia coli expressing beta-lactamase NDM-1 by CLSI broth microdilution method; format: functional
Escherichia coli [34] = test: microbe, parasite or virus in culture; remark: listed apart in the source
[35] = Chemical stability in pH 7.4 potassium phosphate buffer assessed as half life for compound hydrolysis at 37 degC by UPLC and mass spectrometry; format: physicochemical
Escherichia coli [36] = test: microbe, parasite or virus in culture; remark: listed apart in the source
Escherichia coli [37] = test: microbe, parasite or virus in culture; remark: listed apart in the source
Escherichia coli [38] = test: microbe, parasite or virus in culture; remark: listed apart in the source
Escherichia coli [39] = test: microbe, parasite or virus in culture; remark: listed apart in the source
Escherichia coli [40] = test: Antimicrobial activity against Escherichia coli expressing beta-lactamase NDM-5 by CLSI broth microdilution method; format: functional
Escherichia coli [41] = test: microbe, parasite or virus in culture; remark: listed apart in the source
Escherichia coli [42] = test: microbe, parasite or virus in culture; remark: listed apart in the source
Escherichia coli [43] = test: microbe, parasite or virus in culture; remark: listed apart in the source
Escherichia coli [44] = test: microbe, parasite or virus in culture; remark: listed apart in the source
Escherichia coli [45] = test: microbe, parasite or virus in culture; remark: listed apart in the source
Escherichia coli [46] = test: microbe, parasite or virus in culture; remark: listed apart in the source
Escherichia coli [47] = test: microbe, parasite or virus in culture; remark: listed apart in the source
Escherichia coli [48] = test: microbe, parasite or virus in culture; remark: listed apart in the source
Escherichia coli [49] = test: microbe, parasite or virus in culture; remark: listed apart in the source
Escherichia coli [50] = test: microbe, parasite or virus in culture; remark: listed apart in the source
Escherichia coli [51] = test: microbe, parasite or virus in culture; remark: listed apart in the source
Escherichia coli [52] = test: Antimicrobial activity against Escherichia coli expressing beta-lactamase VEB-1 by CLSI broth microdilution method; format: functional
[53] = target: GABA A receptor alpha-2/beta-2/gamma-2 (Homo sapiens) (UniProt P47870+P18507+P47869); test: Inhibition of recombinant human GABA A alpha2beta2gamma2 receptor expressed in CHO-K1 cells at 300 uM incubated at room temperature for 15 mins before the GABA addition fluorescence spectrometry; format: cell-based
Mus musculus = test: Toxicity in CD1 mouse assessed as induction of convulsion at 100 mg/kg, icv measured 1 hr after post dose; format: organism-based; conditions: in vivo, icv_or_intrathecal

Structure (SMILES): C[C@H]1[C@H](NC(=O)/C(=N\OC(C)(C)C(=O)O)c2csc(N)n2)C(=O)N1S(=O)(=O)O [AZTREONAM]
- MIC (Escherichia coli [1]): 1 µg/mL (≈ 2.3 µM)
- MIC (Escherichia coli [2]): 8 µg/mL (≈ 18.4 µM)
- MIC (Escherichia coli [3]): 4 µg/mL (≈ 9.19 µM)
- AUC [4]: 13000 ng·h/mL
- MIC (Escherichia coli [5]): > 1020 µg/mL
- MIC (Escherichia coli [6]): 256 µg/mL (≈ 588 µM)
- Stability (Beta-lactamase SHV-12): Unstable
- dose excreted [7]: 40%
- AUC [8]: 13000 ng·h/mL
- MIC (Escherichia coli [9]): 16 µg/mL (≈ 36.7 µM)
- MIC (Escherichia coli [10]): 128 µg/mL (≈ 294 µM)
- MIC (Escherichia coli [11]): 16 µg/mL (≈ 36.7 µM)
- MIC (Escherichia coli [12]): 16 µg/mL (≈ 36.7 µM)
- MIC (Escherichia coli [13]): 4 µg/mL (≈ 9.19 µM)
- AUC [14]: 5000 ng·h/mL
- MIC (Escherichia coli [15]): 4 µg/mL (≈ 9.19 µM)
- Stability [16]: Unstable
- Stability [17]: Unstable
- MIC (Escherichia coli [18]): 8 µg/mL (≈ 18.4 µM)
- dose excreted [19]: 53%
- MIC (Escherichia coli [20]): 8 µg/mL (≈ 18.4 µM)
- Activity (Klebsiella pneumoniae): inactive
- MIC (Escherichia coli [21]): 1 µg/mL (≈ 2.3 µM)
- MIC (Escherichia coli [22]): 1 µg/mL (≈ 2.3 µM)
- MIC (Escherichia coli [23]): 8 µg/mL (≈ 18.4 µM)
- MIC (Escherichia coli [24]): 16 µg/mL (≈ 36.7 µM)
- MIC (Escherichia coli [25]): 1 µg/mL (≈ 2.3 µM)

Structure (SMILES): NC(=O)OC[C@@H]1[C@H](NC(=O)/C(=N\OCC(=O)O)c2csc(N)n2)C(=O)N1S(=O)(=O)O [CARUMONAM]
- MIC (Escherichia coli [26]): 0.125 µg/mL (≈ 0.268 µM)
- MIC (Escherichia coli [1]): 16 µg/mL (≈ 34.3 µM)
- MIC (Escherichia coli [27]): 1 µg/mL (≈ 2.14 µM)
- MIC (Escherichia coli [28]): 0.125 µg/mL (≈ 0.268 µM)
- MIC (Escherichia coli [2]): 4 µg/mL (≈ 8.58 µM)
- MIC (Escherichia coli [29]): 0.125 µg/mL (≈ 0.268 µM)
- MIC (Escherichia coli [3]): 4 µg/mL (≈ 8.58 µM)
- MIC (Escherichia coli [30]): 4 µg/mL (≈ 8.58 µM)
- MIC (Escherichia coli [31]): 0.125 µg/mL (≈ 0.268 µM)
- MIC (Escherichia coli [5]): > 64 µg/mL
- MIC (Escherichia coli [6]): > 64 µg/mL
- MIC (Escherichia coli [32]): 0.125 µg/mL (≈ 0.268 µM)
- Stability (Beta-lactamase SHV-12): Unstable
- MIC (Escherichia coli [33]): 0.125 µg/mL (≈ 0.268 µM)
- MIC (Escherichia coli [34]): 0.06 to 0.125 µg/mL (≈ 0.129 to 0.268 µM)
- half-life [35]: > 83.3 days
- MIC (Escherichia coli [9]): 0.5 µg/mL (≈ 1.07 µM)
- MIC (Escherichia coli [36]): 16 µg/mL (≈ 34.3 µM)
- MIC (Escherichia coli [37]): > 64 µg/mL
- MIC (Escherichia coli [38]): 32 µg/mL (≈ 68.6 µM)
- MIC (Escherichia coli [39]): 0.125 µg/mL (≈ 0.268 µM)
- MIC (Escherichia coli [10]): 64 µg/mL (≈ 137 µM)
- MIC (Escherichia coli [11]): 0.5 µg/mL (≈ 1.07 µM)
- MIC (Escherichia coli [40]): 0.125 µg/mL (≈ 0.268 µM)
- MIC (Escherichia coli [41]): 0.125 µg/mL (≈ 0.268 µM)
- MIC (Escherichia coli [12]): 0.125 µg/mL (≈ 0.268 µM)
- MIC (Escherichia coli [42]): 0.125 µg/mL (≈ 0.268 µM)
- MIC (Escherichia coli [43]): 0.125 µg/mL (≈ 0.268 µM)
- MIC (Escherichia coli [13]): 4 µg/mL (≈ 8.58 µM)
- MIC (Escherichia coli [15]): 4 µg/mL (≈ 8.58 µM)
- MIC (Escherichia coli [44]): 0.125 µg/mL (≈ 0.268 µM)
- MIC (Escherichia coli [45]): 4 µg/mL (≈ 8.58 µM)
- Stability [16]: Stable
- Stability [17]: Stable
- MIC (Escherichia coli [18]): 1 µg/mL (≈ 2.14 µM)
- MIC (Escherichia coli [46]): 0.125 µg/mL (≈ 0.268 µM)
- MIC (Escherichia coli [20]): 8 µg/mL (≈ 17.2 µM)
- MIC (Escherichia coli [47]): 0.125 µg/mL (≈ 0.268 µM)
- MIC (Escherichia coli [48]): 0.125 µg/mL (≈ 0.268 µM)
- MIC (Escherichia coli [21]): 1 µg/mL (≈ 2.14 µM)
- MIC (Escherichia coli [22]): 0.5 µg/mL (≈ 1.07 µM)
- MIC (Escherichia coli [23]): 0.5 µg/mL (≈ 1.07 µM)
- MIC (Escherichia coli [49]): 0.125 µg/mL (≈ 0.268 µM)
- MIC (Escherichia coli [50]): > 64 µg/mL
- MIC (Escherichia coli [51]): 64 µg/mL (≈ 137 µM)
- MIC (Escherichia coli [24]): 2 µg/mL (≈ 4.29 µM)
- MIC (Escherichia coli [25]): 0.125 µg/mL (≈ 0.268 µM)
- MIC (Escherichia coli [52]): > 64 µg/mL

Structure (SMILES): C[C@@H](O)[C@H]1C(=O)N2C(C(=O)O)=C(S[C@@H]3CN[C@H](CNS(N)(=O)=O)C3)[C@H](C)[C@H]12 [DORIPENEM]
- inhibition [53]: 0%
- Activity (Mus musculus): Non-Toxic
